Assay results: patent US9815851B2, “Pyrrolo carboxamides as modulators of orphan nuclear receptor RAR-related orphan receptor-gamma (RORγ, NR1F3) activity and for the treatment of chronic inflammatory and autoimmune diseases” (PHENEX PHARMACEUTICALS AG, priority 2011, dated 2017)
Like-named read-outs stand apart in the source and are kept apart here.

Assays:
[1] = target: T1, RORγ ligand binding domain (LBD) (Homo sapiens, UniProt P51449); assay: TR-FRET Activity Assay (ligand sensing, RORγ-LBD / coactivator peptide interaction, LANCE); type: biochemical
T1 construct: made in house; host or cells: E. coli BL-21 (BL3), vector pDEST15
T1 sequence (P51449 269-508 limits assumed): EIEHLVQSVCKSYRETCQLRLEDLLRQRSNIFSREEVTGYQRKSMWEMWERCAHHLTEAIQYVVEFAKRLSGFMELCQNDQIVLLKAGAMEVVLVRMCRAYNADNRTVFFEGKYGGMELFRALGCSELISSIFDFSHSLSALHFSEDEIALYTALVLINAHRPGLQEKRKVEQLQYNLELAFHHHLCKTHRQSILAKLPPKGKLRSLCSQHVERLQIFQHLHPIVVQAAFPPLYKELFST

RORγ = target: T2, RORγ (UniProt P51449); assay: RORγ Gal4 Reporter Gene Assay in 293T cells (firefly and renilla luciferase); type: cell-based, human
T2 sequence (P51449 1-518): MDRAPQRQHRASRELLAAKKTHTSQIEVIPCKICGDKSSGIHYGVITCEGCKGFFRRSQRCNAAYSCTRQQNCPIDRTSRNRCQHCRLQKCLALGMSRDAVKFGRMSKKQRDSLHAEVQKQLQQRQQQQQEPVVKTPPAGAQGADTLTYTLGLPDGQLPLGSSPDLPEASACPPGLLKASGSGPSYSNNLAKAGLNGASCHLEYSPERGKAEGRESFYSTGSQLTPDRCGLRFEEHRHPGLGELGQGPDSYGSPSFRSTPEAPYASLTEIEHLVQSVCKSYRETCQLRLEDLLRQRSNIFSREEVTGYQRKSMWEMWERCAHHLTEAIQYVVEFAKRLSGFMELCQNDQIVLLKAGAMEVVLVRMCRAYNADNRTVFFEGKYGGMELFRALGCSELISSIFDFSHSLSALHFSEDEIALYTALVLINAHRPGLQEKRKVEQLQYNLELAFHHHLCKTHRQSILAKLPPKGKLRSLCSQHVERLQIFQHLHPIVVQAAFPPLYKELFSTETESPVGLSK

[2] = first value of the cell FRET/FF/REN, TR-FRET activity assay, read-out: pIC50 (FRET) (converted)
[3] = second value of the cell, Gal4 reporter gene assay in 293T cells, firefly luciferase
[4] = third value of the cell, Gal4 reporter gene assay in 293T cells, renilla normalised luciferase

With `Cc1c(C(=O)N[C@H]2CCCOC2)cc(-c2ccc(S(=O)(=O)NC(C)(C)C)c(C(F)(F)F)c2)n1CC1CCCCC1` [17/139] the IC50 [1, 2] was 158 nM, the “pIC50 (FF)” value (RORγ; [3]) was 7.2 and the “pIC50 (REN)” value (RORγ; [4]) was 7.4.
In the case of `Cc1c(C(=O)NC2COC2)cc(-c2cc(C(=O)N3CCCCC3)c3ccccn23)n1CC1CCCCC1` [Example 10/1], the IC50 [1, 2] is reported as 15800 nM, the “pIC50 (FF)” value (RORγ; [3]) is reported as 6.7 and the “pIC50 (REN)” value (RORγ; [4]) is reported as 6.6.
In the case of `Cc1c(C(=O)NCCc2noc(=O)[nH]2)cc(-c2ccc(S(=O)(=O)NC(C)(C)C)c(C(F)(F)F)c2)n1CC1CCCCC1` [17/332], the IC50 [1, 2] is reported as 200 nM, the “pIC50 (FF)” value (RORγ; [3]) is reported as 6.4 and the “pIC50 (REN)” value (RORγ; [4]) is reported as 6.4.
With `Cc1c(C(=O)N2CCOCC2)cc(-c2ccc(S(=O)(=O)NC(C)(C)C)c(C(F)(F)F)c2)n1CC1CCCCC1` [17/198] the IC50 [1] was 501 nM, the “pIC50 (FF)” value (RORγ) was 6.3/6.8/6.9 and the “pIC50 (REN)” value (RORγ) was 6.3/6.8/6.9.
With `Cc1c(C(=O)NC2COC2)cc(-c2cc(C(C)(C)C)cc(C3(C)CC3)c2)n1CC1CCCCC1` [1/81] the IC50 [1, 2] was 200 nM, the “pIC50 (FF)” value (RORγ; [3]) was 7.4 and the “pIC50 (REN)” value (RORγ; [4]) was 7.4.
In the case of `Cc1c(C(=O)NCCC(C)(C)C(=O)O)cc(-c2ccc(S(=O)(=O)NC3(C#N)CC3)c(C(F)(F)F)c2)n1CC1CCCCC1` [17/361], the IC50 [1, 2] is reported as 2000 nM, the “pIC50 (FF)” value (RORγ; [3]) is reported as 6.4 and the “pIC50 (REN)” value (RORγ; [4]) is reported as 6.4.
`Cc1c(C(=O)NC2CCOCC2)cc(-c2ccc(S(=O)(=O)N(CC(F)(F)F)C(C)(C)C)c(C(C)(C)C)c2)n1CC1CCCCC1` [17/1] was tested, and the IC50 [1] was 1260 nM, the “pIC50 (FF)” value (RORγ) was 5.9/8.0/7.9 and the “pIC50 (REN)” value (RORγ) was 5.9/8.0/7.9.
For `Cc1c(C(=O)NC2CC23CCOCC3)cc(-c2ccc(S(=O)(=O)NC(C)(C)C)c(C(C)(C)C)c2)n1CC1CCCCC1` (stereo not drawn) [17/207], the IC50 [1, 2] was 501 nM, the “pIC50 (FF)” value (RORγ; [3]) was 7.9 and the “pIC50 (REN)” value (RORγ; [4]) was 8.0.
For `Cc1c(C(=O)N[C@H]2C[C@H](C(=O)O)C2)cc(-c2cc(C(C)(C)C)nc(C3(C)CC3)c2)n1CC1CCCCC1` [17/292], the IC50 [1, 2] was 1260 nM, the “pIC50 (FF)” value (RORγ; [3]) was 7.5 and the “pIC50 (REN)” value (RORγ; [4]) was 7.4.
With `CC(C)(O)CNC(=O)c1cc(-c2ccc(S(=O)(=O)NC(C)(C)C)c(C(C)(C)C)c2)n(CC2CCCCC2)c1C(F)(F)F` [1/26] the IC50 [1] was 10000 nM, the “pIC50 (FF)” value (RORγ) was 5.0/<4.7/<4.7 and the “pIC50 (REN)” value (RORγ) was 5.0/<4.7/<4.7.
For `Cc1c(C(=O)NC2COC2)cc(-c2cc(C(C)(C)C)cc(C(C)(C)CF)c2)n1CC1CCCCC1` [17/42], the IC50 [1] was 2000 nM, the “pIC50 (FF)” value (RORγ) was 5.7/7.5/7.6 and the “pIC50 (REN)” value (RORγ) was 5.7/7.5/7.6.
In the case of `Cc1c(C(=O)N2CCOC(C(=O)O)C2)cc(-c2ccc(S(=O)(=O)NC(C)(C)C)c(C(F)(F)F)c2)n1CC1CCCCC1` (stereo not drawn) [17/137], the IC50 [1, 2] is reported as 501 nM, the “pIC50 (FF)” value (RORγ; [3]) is reported as under 4.7 and the “pIC50 (REN)” value (RORγ; [4]) is reported as under 4.7.
For `Cc1c(C(=O)NCc2cocn2)cc(-c2cc(C(C)(C)C)c3c(c2)C2(CCO3)CC2)n1CC1CCCCC1` [17/18], the IC50 [1] was 1000 nM, the “pIC50 (FF)” value (RORγ) was 6.0/6.1/6.1 and the “pIC50 (REN)” value (RORγ) was 6.0/6.1/6.1.
`Cc1c(C(=O)NC2CCOCC2)cc(-c2ccc(S(=O)(=O)NC(C)(C)C)c(C(F)(F)F)c2)n1[C@@H](C)C1CCCCC1` [17/253] was tested, and the IC50 [1, 2] was 631 nM, the “pIC50 (FF)” value (RORγ; [3]) was 7.0 and the “pIC50 (REN)” value (RORγ; [4]) was 7.2.
In the case of `Cc1c(C(=O)NCCN2CCOCC2)cc(-c2ccc(S(=O)(=O)NC(C)(C)C)c3ccccc23)n1CC1CCCCC1` [17/269], the IC50 [1] is reported as 1000 nM, the “pIC50 (FF)” value (RORγ) is reported as 6.0/6.9/7.0 and the “pIC50 (REN)” value (RORγ) is reported as 6.0/6.9/7.0.
For `Cc1c(C(=O)NC2COC2)cc(-c2cc(C(C)(C)C)c3c(c2)C(C)(C)CC(=O)N3C)n1CC1CCCCC1` [1/19], the IC50 [1, 2] was 1000 nM, the “pIC50 (FF)” value (RORγ; [3]) was 7.0 and the “pIC50 (REN)” value (RORγ; [4]) was 7.1.
`Cc1c(C(=O)NC[C@H]2CC[C@H](C(=O)O)CC2)cc(-c2cc(C(C)(C)C)c3c(c2)C2(CCO3)CC2)n1CC1CCCCC1` [17/59] was tested, and the IC50 [1] was 2000 nM, the “pIC50 (FF)” value (RORγ) was 5.7/6.6/6.6 and the “pIC50 (REN)” value (RORγ) was 5.7/6.6/6.6.
In the case of `Cc1c(C(=O)NC2COC2)cc(-c2cc(C(=O)N(C)C(C)(C)C)nc(C(C)(C)C)c2)n1CC1CCCCC1` [6/1], the IC50 [1, 2] is reported as 2000 nM, the “pIC50 (FF)” value (RORγ; [3]) is reported as 6.7 and the “pIC50 (REN)” value (RORγ; [4]) is reported as 6.7.
In the case of `Cc1c(C(=O)NC2CCOCC2)cc(-c2ccc(S(=O)(=O)NC(C)(C)C)c(C(C)(C)C)c2)n1CC1CCC1` [17/213], the IC50 [1] is reported as 631 nM, the “pIC50 (FF)” value (RORγ) is reported as 6.2/7.1/7.2 and the “pIC50 (REN)” value (RORγ) is reported as 6.2/7.1/7.2.
`Cc1c(C(=O)N2CCC(C)(C(=O)O)CC2)cc(-c2cc(C(C)(C)C)c3c(c2)C2(CCO3)CC2)n1CC1CCCCC1` [17/54] was tested, and the IC50 [1, 2] was 1580 nM, the “pIC50 (FF)” value (RORγ; [3]) was 7.1 and the “pIC50 (REN)” value (RORγ; [4]) was 7.2.
